# Measurements reported in ChEMBL document CHEMBL1201862, “PubChem BioAssay data set” (2004).
# Active and inactive are the calls of the source.
# Experiments:
# [1] = system: H4; assay: Luminescence Cell-Based Dose Response HTS to Identify Activators of 5'UTR Stem-Loop Driven Prion Protein mRNA Translation in H4 Neuroglioblastoma Cells. [Related pubchem assays: 1829 (Project Summary), 1814 (Primary HTS)]; format: functional; conditions: Homo sapiens
# [2] = Luminescence Cell-Based Dose Response HTS to Identify Activators of Luciferase Translation or Activity in H4 […] Cells. [Related pubchem assays: 1829 (Project Summary), 1814 (Primary HTS)]; format: functional
# [3] = target: Potassium voltage-gated channel subfamily KQT member 2 (Rattus norvegicus, UniProt O88943); assay: KCNQ2 channel activators, analog series, SAR follow-up, automated patch clamp, KCNQ2-CHO cells (AID 493113); format: functional
# [4] = target: Cytochrome P450 3A4 (Homo sapiens, UniProt P08684);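 also: CYP3A4 tested as one member of a cytochrome P450 panel screen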
# [5] = target: T1, Cannabinoid receptor 2 (Homo sapiens, UniProt P34972); assay: SAR analysis of antagonists of the Cannabinoid Receptor 2 using an Image-Based Assay. [Related pubchem assays (depositor defined):AID2013, AID2026]; format: functional
# T1 sequence (P34972 whole entry): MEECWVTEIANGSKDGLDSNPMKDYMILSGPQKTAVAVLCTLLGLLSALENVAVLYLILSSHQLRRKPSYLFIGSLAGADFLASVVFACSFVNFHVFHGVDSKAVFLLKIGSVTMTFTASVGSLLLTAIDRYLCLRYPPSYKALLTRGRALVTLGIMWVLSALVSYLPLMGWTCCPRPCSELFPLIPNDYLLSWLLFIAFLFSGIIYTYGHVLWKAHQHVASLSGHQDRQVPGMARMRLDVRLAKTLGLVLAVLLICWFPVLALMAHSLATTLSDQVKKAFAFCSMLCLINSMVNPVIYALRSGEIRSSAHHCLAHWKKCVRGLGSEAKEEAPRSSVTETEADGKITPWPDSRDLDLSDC
# [6] = target: Cytochrome P450 2D6 (Homo sapiens, UniProt P10635);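 also: CYP2D6 member of a cytochrome P450 panel assay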
# Cytochrome P450 2D6, sequence (P10635 whole entry): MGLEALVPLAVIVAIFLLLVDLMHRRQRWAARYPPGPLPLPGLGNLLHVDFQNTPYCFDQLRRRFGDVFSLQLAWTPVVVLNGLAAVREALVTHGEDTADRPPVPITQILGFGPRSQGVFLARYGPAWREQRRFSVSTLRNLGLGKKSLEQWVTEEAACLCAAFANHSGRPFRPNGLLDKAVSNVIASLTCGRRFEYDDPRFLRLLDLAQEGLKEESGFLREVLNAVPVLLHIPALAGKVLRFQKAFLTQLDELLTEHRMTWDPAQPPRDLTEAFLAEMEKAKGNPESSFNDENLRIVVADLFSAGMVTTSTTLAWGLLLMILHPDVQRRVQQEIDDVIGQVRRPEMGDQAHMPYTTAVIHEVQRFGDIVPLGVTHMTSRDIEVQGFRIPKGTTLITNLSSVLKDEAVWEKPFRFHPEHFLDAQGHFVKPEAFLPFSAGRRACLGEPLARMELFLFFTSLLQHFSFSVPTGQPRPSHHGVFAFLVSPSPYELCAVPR
# [7] = target: T2, G-protein coupled receptor 55 (Homo sapiens, UniProt Q9Y2T6); assay: GPR55 antagonist potency of analogs, SAR follow-up, imaging, U2OS, beta-arrestin-GFP, LPI agonist, set 2 (AID 2820); format: functional
# T2 sequence (Q9Y2T6 whole entry): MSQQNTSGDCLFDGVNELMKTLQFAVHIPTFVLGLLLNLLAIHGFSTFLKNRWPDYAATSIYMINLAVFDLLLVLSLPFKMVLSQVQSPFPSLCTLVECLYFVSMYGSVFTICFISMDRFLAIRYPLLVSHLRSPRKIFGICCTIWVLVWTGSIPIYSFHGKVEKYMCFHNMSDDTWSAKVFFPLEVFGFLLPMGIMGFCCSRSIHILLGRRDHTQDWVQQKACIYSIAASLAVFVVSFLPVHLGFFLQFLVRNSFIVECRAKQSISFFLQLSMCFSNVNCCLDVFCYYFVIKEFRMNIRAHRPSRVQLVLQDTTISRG
# [8] = target: T1, Cannabinoid receptor 2; assay: SAR analysis of agonists of the Cannabinoid Receptor 2 using an Image-Based Assay. [Related pubchem assays (depositor defined):AID2013, AID2026]; format: functional
# [9] = target: T3, G-protein coupled receptor 35 (Homo sapiens, UniProt Q9HC97); assay: SAR analysis of Agonists of the GPR35 Receptor using an Image-Based Assay - Set 2. [Related pubchem assays (depositor defined):AID2013, AID2026]; format: functional
# T3 sequence (Q9HC97 whole entry): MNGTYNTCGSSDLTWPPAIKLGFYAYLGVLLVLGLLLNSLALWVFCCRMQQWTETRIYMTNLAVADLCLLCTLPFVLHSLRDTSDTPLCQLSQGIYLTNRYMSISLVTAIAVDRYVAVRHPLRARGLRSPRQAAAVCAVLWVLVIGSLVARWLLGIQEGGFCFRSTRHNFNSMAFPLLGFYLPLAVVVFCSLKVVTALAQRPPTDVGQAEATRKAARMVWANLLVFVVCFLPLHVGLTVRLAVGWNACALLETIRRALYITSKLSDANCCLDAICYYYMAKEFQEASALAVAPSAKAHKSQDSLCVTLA
# [10] = system: Streptococcus sp. 'group A'; assay: growth inhibition of control SK(-) GAS strain, dose response, counter-screen for streptokinase expression inhibitor project, luminescence, kanamycin, BacTiterGlo, confirmation (AID 1900); format: functional, organism-based
# [11] = system: Streptococcus; assay: Group A Streptococcus viability loss, dose response, counter-screen for streptokinase expression inhibitor project, luminescence, BacTiterGlo (AID 1915); format: functional, organism-based;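 also: potency for reduction of bacterial viability or growth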
# [12] = target: T4, Streptokinase A (Streptococcus pyogenes serotype M1, UniProt P10520); assay: S. pyogenes streptokinase expression inhibitors, potency, dose response, plasminogen activation absorbance, OD405 (AID 1914); format: functional, Streptococcus pyogenes M1 GAS;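 also: secreted streptokinase activity via plasminogen activation per viability signal from cell pellet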
# T4 sequence (P10520 whole entry): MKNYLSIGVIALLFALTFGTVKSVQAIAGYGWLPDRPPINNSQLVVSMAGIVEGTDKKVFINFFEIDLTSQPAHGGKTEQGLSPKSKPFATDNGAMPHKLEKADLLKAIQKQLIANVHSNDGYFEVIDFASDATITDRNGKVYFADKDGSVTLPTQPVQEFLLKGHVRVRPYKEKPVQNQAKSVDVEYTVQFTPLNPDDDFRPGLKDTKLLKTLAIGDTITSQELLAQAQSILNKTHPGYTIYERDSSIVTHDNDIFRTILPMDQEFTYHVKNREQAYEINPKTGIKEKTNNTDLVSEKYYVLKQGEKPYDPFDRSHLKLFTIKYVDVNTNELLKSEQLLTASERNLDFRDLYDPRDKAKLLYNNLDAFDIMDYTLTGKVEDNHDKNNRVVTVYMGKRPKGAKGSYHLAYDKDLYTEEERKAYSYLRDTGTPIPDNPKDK
# [13] = target: T3, G-protein coupled receptor 35; assay: SAR analysis of Antagonists of the GPR35 Receptor using an Image-Based Assay - Set 3. [Related pubchem assays (depositor defined):AID2013, AID2026]; format: functional
# [14] = target: T5, Cannabinoid receptor 1 (Homo sapiens, UniProt P21554); assay: SAR analysis of agonists of the Cannabinoid Receptor 1 using an Image-Based Assay - Set 2. [Related pubchem assays (depositor defined):AID2013, AID2026]; format: functional
# T5 sequence (P21554 whole entry): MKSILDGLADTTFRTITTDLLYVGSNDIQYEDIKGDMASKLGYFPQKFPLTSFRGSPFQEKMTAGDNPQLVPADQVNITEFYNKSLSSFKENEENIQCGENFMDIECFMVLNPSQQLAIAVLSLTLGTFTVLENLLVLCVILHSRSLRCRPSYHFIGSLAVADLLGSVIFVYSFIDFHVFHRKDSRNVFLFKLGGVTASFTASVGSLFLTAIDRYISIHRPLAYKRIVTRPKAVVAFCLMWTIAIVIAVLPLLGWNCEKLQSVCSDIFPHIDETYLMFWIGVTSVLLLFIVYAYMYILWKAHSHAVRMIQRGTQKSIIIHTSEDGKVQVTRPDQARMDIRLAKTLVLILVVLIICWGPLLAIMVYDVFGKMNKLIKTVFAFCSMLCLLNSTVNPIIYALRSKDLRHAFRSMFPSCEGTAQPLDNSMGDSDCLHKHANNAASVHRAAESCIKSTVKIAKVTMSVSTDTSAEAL
# [15] = target: T2, G-protein coupled receptor 55; assay: GPR55 antagonists blocking LPI-driven arrestin recruitment, primary screen, imaging, U2OS, beta-arrestin-GFP, LPI agonist (AID 2013); format: functional;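 also: antagonist potency measured as reduced agonist-driven arrestin aggregation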
# [16] = target: Photoreceptor-specific nuclear receptor (Homo sapiens, UniProt Q9Y5X4); assay: NR2E3 inverse agonists, dose response, biochemical, TR-FRET (AID 463256); format: functional
# [17] = target: T5, Cannabinoid receptor 1; assay: SAR analysis of antagonists of the Cannabinoid Receptor 1 using an Image-Based Assay - Set 2. [Related pubchem assays (depositor defined):AID2013, AID2026]; format: functional
# [18] = target: Peroxisome proliferator-activated receptor gamma/Nuclear receptor corepressor 2 (Homo sapiens, UniProt P37231+Q9Y618); assay: Counterscreen for NR2E3 inverse agonists: TR-FRET-based biochemical high throughput dose response assay to identify inverse agonists of the interaction between peroxisome proliferator-activated receptor gamma (PPARg) and nuclear receptor co-repressor 2 (NCOR2).; format: functional
# Peroxisome proliferator-activated receptor gamma/Nuclear receptor corepressor 2, sequence (P37231 whole entry): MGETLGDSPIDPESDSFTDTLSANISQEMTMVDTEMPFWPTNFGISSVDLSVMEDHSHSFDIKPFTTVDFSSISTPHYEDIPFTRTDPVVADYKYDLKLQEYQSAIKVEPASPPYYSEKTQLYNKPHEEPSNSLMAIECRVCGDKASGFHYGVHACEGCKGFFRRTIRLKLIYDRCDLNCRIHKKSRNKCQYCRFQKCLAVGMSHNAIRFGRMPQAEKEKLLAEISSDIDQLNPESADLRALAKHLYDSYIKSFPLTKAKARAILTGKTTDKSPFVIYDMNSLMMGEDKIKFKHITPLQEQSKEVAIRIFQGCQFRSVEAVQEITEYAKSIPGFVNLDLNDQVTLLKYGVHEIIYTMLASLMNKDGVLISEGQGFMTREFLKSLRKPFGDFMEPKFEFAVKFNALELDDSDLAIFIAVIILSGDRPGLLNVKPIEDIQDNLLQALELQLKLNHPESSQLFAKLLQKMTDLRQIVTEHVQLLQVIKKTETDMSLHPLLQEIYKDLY
# Peroxisome proliferator-activated receptor gamma/Nuclear receptor corepressor 2, sequence (Q9Y618 whole entry): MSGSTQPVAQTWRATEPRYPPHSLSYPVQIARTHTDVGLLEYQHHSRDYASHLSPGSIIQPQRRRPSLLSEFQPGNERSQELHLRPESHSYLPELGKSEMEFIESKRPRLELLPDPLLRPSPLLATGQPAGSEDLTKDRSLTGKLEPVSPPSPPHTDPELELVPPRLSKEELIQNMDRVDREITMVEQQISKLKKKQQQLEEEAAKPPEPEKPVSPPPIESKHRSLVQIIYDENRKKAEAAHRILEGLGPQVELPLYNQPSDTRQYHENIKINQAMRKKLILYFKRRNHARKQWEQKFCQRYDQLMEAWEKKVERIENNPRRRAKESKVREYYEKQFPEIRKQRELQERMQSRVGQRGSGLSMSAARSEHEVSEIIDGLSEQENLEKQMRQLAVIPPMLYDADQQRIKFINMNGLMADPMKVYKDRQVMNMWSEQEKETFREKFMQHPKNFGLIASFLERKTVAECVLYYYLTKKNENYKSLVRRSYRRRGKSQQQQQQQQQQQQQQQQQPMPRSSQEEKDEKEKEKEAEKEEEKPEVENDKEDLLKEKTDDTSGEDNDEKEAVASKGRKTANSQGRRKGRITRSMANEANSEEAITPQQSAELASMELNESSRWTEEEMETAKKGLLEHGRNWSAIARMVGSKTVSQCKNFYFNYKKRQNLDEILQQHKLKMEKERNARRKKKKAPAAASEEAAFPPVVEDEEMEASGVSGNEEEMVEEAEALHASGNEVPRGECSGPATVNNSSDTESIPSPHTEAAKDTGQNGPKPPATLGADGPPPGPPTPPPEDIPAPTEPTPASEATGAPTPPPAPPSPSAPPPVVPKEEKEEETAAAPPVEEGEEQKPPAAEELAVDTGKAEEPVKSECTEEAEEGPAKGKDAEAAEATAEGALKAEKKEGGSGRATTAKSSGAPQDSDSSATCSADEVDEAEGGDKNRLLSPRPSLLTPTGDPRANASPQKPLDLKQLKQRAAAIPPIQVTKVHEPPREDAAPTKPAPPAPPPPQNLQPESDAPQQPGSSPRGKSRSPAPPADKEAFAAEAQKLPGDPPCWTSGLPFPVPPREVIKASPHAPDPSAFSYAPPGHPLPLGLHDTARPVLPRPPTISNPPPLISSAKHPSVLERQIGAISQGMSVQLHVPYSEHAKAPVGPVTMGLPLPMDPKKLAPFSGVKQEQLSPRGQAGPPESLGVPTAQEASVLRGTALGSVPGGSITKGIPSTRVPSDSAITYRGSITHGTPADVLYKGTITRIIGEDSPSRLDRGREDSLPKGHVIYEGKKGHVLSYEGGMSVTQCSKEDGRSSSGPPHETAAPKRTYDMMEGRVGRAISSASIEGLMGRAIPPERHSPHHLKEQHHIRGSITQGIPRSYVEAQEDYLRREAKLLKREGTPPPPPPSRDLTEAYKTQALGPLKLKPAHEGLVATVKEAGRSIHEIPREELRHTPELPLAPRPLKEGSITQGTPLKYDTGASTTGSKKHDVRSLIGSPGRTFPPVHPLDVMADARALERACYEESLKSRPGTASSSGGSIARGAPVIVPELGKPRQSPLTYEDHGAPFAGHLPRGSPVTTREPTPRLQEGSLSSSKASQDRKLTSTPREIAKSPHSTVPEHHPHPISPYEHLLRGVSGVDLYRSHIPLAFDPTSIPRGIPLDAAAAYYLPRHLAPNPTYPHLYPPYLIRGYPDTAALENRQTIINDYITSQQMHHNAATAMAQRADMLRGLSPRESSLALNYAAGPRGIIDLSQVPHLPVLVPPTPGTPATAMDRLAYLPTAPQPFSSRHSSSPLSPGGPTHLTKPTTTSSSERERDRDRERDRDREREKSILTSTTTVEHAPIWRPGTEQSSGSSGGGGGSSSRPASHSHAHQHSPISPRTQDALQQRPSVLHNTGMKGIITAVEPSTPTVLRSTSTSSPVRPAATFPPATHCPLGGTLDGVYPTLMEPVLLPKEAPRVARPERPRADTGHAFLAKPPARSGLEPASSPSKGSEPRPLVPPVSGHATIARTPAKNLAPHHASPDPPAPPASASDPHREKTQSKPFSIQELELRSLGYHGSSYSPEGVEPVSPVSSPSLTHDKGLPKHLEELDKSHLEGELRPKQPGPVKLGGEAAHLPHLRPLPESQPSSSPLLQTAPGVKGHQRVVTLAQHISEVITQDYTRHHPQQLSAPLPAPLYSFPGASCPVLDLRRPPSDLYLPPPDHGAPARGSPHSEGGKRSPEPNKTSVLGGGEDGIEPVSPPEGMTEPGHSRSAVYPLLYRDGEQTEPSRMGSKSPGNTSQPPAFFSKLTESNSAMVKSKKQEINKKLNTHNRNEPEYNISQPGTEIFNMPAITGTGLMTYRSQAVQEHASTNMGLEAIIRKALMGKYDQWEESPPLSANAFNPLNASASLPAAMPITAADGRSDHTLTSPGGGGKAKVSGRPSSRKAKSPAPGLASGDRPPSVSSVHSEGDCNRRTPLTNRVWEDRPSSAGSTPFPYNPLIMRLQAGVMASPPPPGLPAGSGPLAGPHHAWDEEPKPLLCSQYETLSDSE
SMILES,EC50 [1],EC50 [2],EC50 [3],AC50 [4],IC50 [5],AC50 [6],IC50 [7],EC50 [8],EC50 [9],EC50 [10],EC50 [11],EC50 [12],IC50 [13],EC50 [14],IC50 [15],IC50 [16],IC50 [17],IC50 [18]
CC(C)c1ccc(NC(=O)C2CC3CCC2C3)cc1 (stereo not drawn),65.4 µM (active),0.432 µM (active),0.72 µM (active),,,,,,,,,,,,,,,
Cc1nnc(-c2cccc(Br)c2)c2cn(-c3ccc(Br)cc3)nc12,,,,inconclusive,> 32 µM (inactive),12.6 µM (inconclusive),0.893 µM (active),> 32 µM (inactive),> 32 µM (inactive),3.53 µM (active),28.4 µM (active),19.2 µM (active),> 32 µM (inactive),> 32 µM (inactive),0.915 µM (active),18.8 µM (not active),13.9 µM (inactive),14.5 µM (not active)
